Results published in US20070213339A1 (Bayer Pharmaceuticals Corporation, priority 2004, published 2007).

The compounds below were run on Colo205 human colon carcinoma cell line (assay: In vitro tumor cell proliferation assay (MTS, CellTiter 96 Aqueous One Solution)). Conditions: COLO 205, Colo205 cells, 72 hours compound exposure, MTS absorbance at 490 nm, read-out: IC50 (concentration of test compound required to inhibit proliferation of 50% of the cells).
Assay type: cell-based
Outline: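 Proliferation measured as MTS tetrazolium reduction (490 nm) after 72 h compound exposure at 37 °C. Cells plated at 2000 per well in serum-supplemented RPMI-1640; duplicate 5-point dilutions topping out at 10-20 μM. Percent inhibition versus untreated and cell-free wells, IC50 derived by linear regression.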

| Structure (SMILES) | IC50 [nM] |
| --- | --- |
| CCN(CC)Cc1ccc(-n2cc(C(=O)O)c(=O)c3cc(F)c(N4CCN(c5ccccc5F)CC4)c(OC)c32)cc1 [Example 114, 1-{4-[(diethylamino)methyl]phenyl}-6-fluoro-7-[4-(2-fluorophenyl)piperazin-1-yl]-8-methoxy-4-oxo-1,4-dihydroquinoline-3-carboxylic acid] | < 500 |
| CCN(CC)Cc1ccc(-n2cc(C(=O)O)c(=O)c3cc(F)c(N4CCN(c5ccc(C#N)cc5)CC4)c(OC)c32)cc1 [Example 108, 7-[4-(4-cyanophenyl)piperazin-1-yl]-1-{4-[(diethylamino)methyl]phenyl}-6-fluoro-8-methoxy-4-oxo-1,4-dihydroquinoline-3-carboxylic acid] | < 500 |
| CCN(CC)Cc1ccc(-n2cc(C(=O)O)c(=O)c3cc(F)c(N4CCN(c5ncccc5C#N)CC4)c(OC(F)(F)Cl)c32)cc1 [Example 161, 8-[chloro(difluoro)methoxy]-7-[4-(3-cyanopyridin-2-yl)piperazin-1-yl]-1-{4-[(diethylamino)methyl]phenyl}-6-fluoro-4-oxo-1,4-dihydroquinoline-3-carboxylic acid] | < 500 |
| CCN(CC)Cc1ccc(-n2cc(C(=O)O)c(=O)c3cc(F)c(N4CCN(c5ccc(F)cc5)CC4)c(OC)c32)cc1 [Example 105, 1-{4-[(diethylamino)methyl]phenyl}-6-fluoro-7-[4-(4-fluorophenyl)piperazin-1-yl]-8-methoxy-4-oxo-1,4-dihydroquinoline-3-carboxylic acid] | < 500 |
| CCN(CC)Cc1ccc(-n2cc(C(=O)O)c(=O)c3cc(F)c(N4CCN(c5ccc(F)cc5F)CC4)c(OC)c32)cc1 [Example 111, 1-{4-[(diethylamino)methyl]phenyl}-7-[4-(2,4-difluorophenyl)piperazin-1-yl]-6-fluoro-8-methoxy-4-oxo-1,4-dihydroquinoline-3-carboxylic acid] | 500 to 2000 |
| N#Cc1cccnc1N1CCN(c2c(F)cc3c(=O)c(C(=O)O)cn(-c4ccc(CN5CCCC5)nc4)c3c2Cl)CC1 [Example 35, 8-chloro-7-[4-(3-cyanopyridin-2-yl)piperazin-1-yl]-6-fluoro-4-oxo-1-[6-(pyrrolidin-1-ylmethyl)pyridin-3-yl]-1,4-dihydroquinoline-3-carboxylic acid] | < 500 |
| N#Cc1ccccc1N1CCN(c2c(F)cc3c(=O)c(C(=O)O)cn(-c4ccc(CN5CCCC5)c(F)c4)c3c2Cl)CC1 [Example 185, 8-chloro-7-[4-(2-cyanophenyl)-piperazine-1-yl]-6-fluoro-1-(3-fluoro-4-pyrrolidin-1-ylmethyl-phenyl)-4-oxo-1,4-dihydroquinoline-3-carboxylic acid] | < 500 |
| N#Cc1cccnc1N1CCN(c2c(F)cc3c(=O)c(C(=O)O)cn(-c4ccc(CN5CCCC5)c(F)c4)c3c2Cl)CC1 [Example 184, 8-chloro-7-[4-(3-cyanopyridin-2-yl)-piperazine-1-yl]-6-fluoro-1-(3-fluoro-4-pyrrolidin-1-ylmethyl-phenyl)-4-oxo-1,4-dihydroquinoline-3-carboxylic acid] | < 500 |
| N#Cc1cccnc1N1CCN(c2c(F)cc3c(=O)c(C(=O)O)cn(-c4ccc(CN5CCCC5)cc4F)c3c2Cl)CC1 [Example 45, 8-chloro-7-[4-(3-cyanopyridin-2-yl)piperazin-1-yl]-6-fluoro-1-[2-fluoro-4-(pyrrolidin-1-ylmethyl)phenyl]-4-oxo-1,4-dihydroquinoline-3-carboxylic acid] | < 500 |
| COc1cc(CNC2CCC2)ccc1-n1cc(C(=O)O)c(=O)c2cc(F)c(N3CCN(c4ccc(F)cc4)CC3)c(Cl)c21 [Example 178, 8-chloro-1-(4-cyclobutylaminomethyl-2-methoxyphenyl)-6-fluoro-7-[4-(4-fluorophenyl)-piperazine-1-yl]-4-oxo-1,4-dihydroquinoline-3-carboxylic acid] | < 500 |
| CN(C)Cc1ccc(-n2cc(C(=O)O)c(=O)c3cc(F)c(N4CCN(c5cccc(Cl)c5)CC4)c(OC(F)(F)F)c32)cc1 [Example 130, 7-[4-(3-chlorophenyl)piperazin-1-yl]-1-{4-[(dimethylamino)methyl]phenyl}-6-fluoro-4-oxo-8-(trifluoromethoxy)-1,4-dihydroquinoline-3-carboxylic acid] | < 500 |

The next lines start with the values.

| IC50 [nM] | Structure (SMILES) |
| --- | --- |
| 500 to 2000 | COC[C@H]1CCCN1Cc1ccc(-n2cc(C(=O)O)c(=O)c3cc(F)c(N4CCN(c5ncccn5)CC4)c(Cl)c32)cc1 [Example 22, 8-chloro-6-fluoro-1-(4-{[(2R)-2-(methoxy-methyl)pyrrolidin-1-yl]methyl}phenyl)-4-oxo-7-(4-pyrimidin-2-ylpiperazin-1-yl)-1,4-dihydroquinoline-3-carboxylic acid] |
| < 500 | O=C(O)c1cn(-c2ccc(CNC3CCCC3)cc2)c2c(Cl)c(N3CCN(c4ccccn4)CC3)c(F)cc2c1=O [Example 56, 8-chloro-1-{4-[(cyclopentylamino)-methyl]phenyl}-6-fluoro-4-oxo-7-(4-pyridin-2-ylpiperazin-1-yl)-1,4-dihydroquinoline-3-carboxylic acid] |
| < 500 | COC[C@@H]1CCCN1Cc1ccc(-n2cc(C(=O)O)c(=O)c3cc(F)c(N4CCN(c5ccc(F)cc5)CC4)c(Cl)c32)cc1 [Example 25, 8-chloro-6-fluoro-7-[4-(4-fluorophenyl)-piperazin-1-yl]-1-(4-{[(2S)-2-(methoxymethyl)pyrrolidin-1-yl]methyl}phenyl)-4-oxo-1,4-dihydroquinoline-3-carboxylic acid] |
| < 500 | O=C(O)c1cn(-c2ccc(CNC3CCCCC3)cc2)c2c(Cl)c(N3CCN(c4ncccn4)CC3)c(F)cc2c1=O [Example 189, 8-chloro-1-(4-cyclohexylaminomethyl-phenyl)-6-fluoro-4-oxo-7-(4-pyrimidin-2-yl-piperazin-1-yl)-1,4-dihydroquinoline-3-carboxylic acid] |
| < 500 | O=C(O)c1cn(-c2ccc(CN3CCCC3)c(F)c2)c2c(Cl)c(N3CCN(c4ccc(F)cc4)CC3)c(F)cc2c1=O [Example 186, 8-chloro-7-[4-(4-fluorophenyl)-piperazine-1-yl]-6-fluoro-1-(3-fluoro-4-pyrrolidin-1-ylmethyl-phenyl)-4-oxo-1,4-dihydroquinoline-3-carboxylic acid] |
| < 500 | O=C(O)c1cn(-c2ccc(CN3CC[C@@H](O)C3)cc2)c2c(Cl)c(N3CCN(c4ccc(F)cc4)CC3)c(F)cc2c1=O [Example 31, 8-chloro-6-fluoro-7-[4-(4-fluorophenyl)-piperazin-1-yl]-1-(4-{[(3R)-3-hydroxypyrrolidin-1-yl]methyl}phenyl)-4-oxo-1,4-dihydroquinoline-3-carboxylic acid] |
| < 500 | O=C(O)c1cn(-c2ccc(CN3CC[C@H](O)C3)cc2)c2c(Cl)c(N3CCN(c4ccccn4)CC3)c(F)cc2c1=O [Example 28, 8-chloro-6-fluoro-1-(4-{[(3S)-3-hydroxypyrrolidin-1-yl]methyl}phenyl)-4-oxo-7-(4-pyridin-2-ylpiperazin-1-yl)-1,4-dihydroquinoline-3-carboxylic acid] |
| 500 to 2000 | N#Cc1c(N2CCN(c3ccccn3)CC2)c(F)cc2c(=O)c(C(=O)O)cn(-c3ccc(CN4CCCC4)cc3)c12 [Example 169, 8-cyano-6-fluoro-4-oxo-7-(4-pyridin-2-ylpiperazin-1-yl)-1-[4-(pyrrolidin-1-ylmethyl)phenyl]-1,4-dihydroquinoline-3-carboxylic acid] |
